Measured values taken from patent US9783532B2, “Molecules having certain pesticidal utilities, and intermediates, compositions, and processes related thereto” (Dow AgroSciences LLC, priority 2013, dated 2017).

Experiments:
Format in all cases: in vivo
[1] = tested on: Yellow Fever Mosquito "YFM" (Aedes aegypti); conditions: for YFM % Control (or Mortality) rating: about 1 day-old larvae, 96-well plate, room temperature, 3 days
Protocol: Certain molecules disclosed in this document were tested against YFM using procedures described in the following paragraph. In the reporting of the results, the “YFM Rating Table” was used (See Table Section).
Master plates containing 400 μg of a molecule dissolved in 100 μL of dimethyl sulfoxide (DMSO) (equivalent to a 4000 ppm solution) are used. A master plate of assembled molecules contains 15 μL per well. To this plate, 135 μL of a 90:10 wateracetone mixture is added to each well. A robot (Biomek® NXP Laboratory Automation Workstation) is programmed to dispense 15 μL aspirations from the master plate into an empty 96-well shallow plate (“daughter” plate). There are 6 reps (“daughter” plates) created per master. The created daughter plates are then immediately infested with YFM larvae.
The day before plates are to be treated, mosquito eggs are placed in Millipore water containing liver powder to begin hatching (4 g. into 400 mL). After the daughter plates are created using the robot, they are infested with 220 μL of the liver powder/larval mosquito mixture (about 1 day-old larvae). After plates are infested with mosquito larvae, a non-evaporative lid is used to cover the plate to reduce drying. Plates are held at room temperature for 3 days prior to grading. After 3 days, each well is observed and scored based on mortality.

[2] = tested on: Beet Armyworm (Spodoptera exigua) ("BAW"); experiment: Bioassay on beet armyworm (BAW), 128-well diet tray assay; conditions: for mortality at 50 µg/cm2: 168 h, 50 μg/cm^2 on artificial diet, second instar BAW larvae, 25° C., five to seven days, average of eight wells, read-out: BAW % Control (or Mortality) rating; for pest or weed control at 50 µg/cm2: Table ABC (PC), activity rating class, read-out: BAW (Biological Results, Insect species)
In short: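 Percent mortality, averaged across eight wells, was read after five to seven days at 25° C. under 14:10 light-dark. Each well held one to five second-instar larvae on artificial diet that had been treated with 50 μg/cm^2 compound in 90:10 acetone-water and dried.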

[3] = tested on: Cabbage Looper (Trichoplusia ni) ("CL"); experiment: Bioassay on cabbage looper (CL), 128-well diet tray assay; conditions: Table ABC (PC), activity rating class, read-out: CL (Biological Results, Insect species)
In short: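 Percent mortality, averaged across eight replicate wells, was read after five to seven days at 25 °C under a 14:10 photoperiod. Each well held one to five second-instar T. ni on diet carrying a dried 50 μg/cm^2 dose applied in acetone-water 90:10.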

Row | SMILES | YFM % Control (or Mortality) rating [1] | mortality at 50 µg/cm2 [2] [%] | pest or weed control at 50 µg/cm2 [3] [%] | pest or weed control at 50 µg/cm2 [2] [%] | YFM (Biological Results, Insect species) ([1]; Table ABC (PC), activity rating class)
1 | CCC(CNC(=O)/N=C1\SCC(=O)N1c1ccccc1C(C)C)c1ccc(-c2ncn(-c3ccc(OC(F)(F)F)cc3)n2)cc1 (centres unmarked) [P209, (Z)-1-(3-(2-isopropylphenyl)-4-oxothiazolidin-2-ylidene)-3-(2-(4-(1-(4-(trifluoromethoxy)phenyl)-1H-1,2,4-triazol-3-yl)phenyl)butyl)urea] | A (80-100) | 50 to 100 |  |  | 
2 | CCC(CNC(=O)/N=C1\SCC(=O)N1c1cc(OC)ccc1C(C)C)c1ccc(-c2ncn(-c3ccc(OC(F)(F)F)cc3)n2)cc1 (centres unmarked) [P683, (Z)-1-(3-(2-isopropyl-5-methoxyphenyl)-4-oxothiazolidin-2-ylidene)-3-(2-(4-(1-(4-(trifluoromethoxy)phenyl)-1H-1,2,4-triazol-3-yl)phenyl)butyl)urea] | A (80-100) | 50 to 100 |  |  | 
3 | CCC(CNC(=O)/N=C1\SCC(=O)N1c1ccc(F)cc1C(C)C)c1ccc(-c2ncn(-c3ccc(OC(F)(F)F)cc3)n2)cc1 (centres unmarked) [P1163] | D (No activity noticed in this bioassay) | 50 to 100 |  |  | 
4 | Cc1ccccc1NC(=S)NC(=O)NCCCCc1ccc(-c2ncn(-c3ccc(OC(F)(F)F)cc3)n2)cc1 [PC144, 1-(o-tolylcarbamothioyl)-3-[4-[4-[1-[4-(trifluoromethoxy)phenyl]-1H-1,2,4-triazol-3-yl]phenyl]butyl]urea] |  |  | 50 to 100 | 50 to 100 | 
5 | CCc1ccccc1NC(=S)NC(=O)NCCCCc1ccc(-c2ncn(-c3ccc(OC(F)(F)F)cc3)n2)cc1 [PC145, 1-[(2-ethylphenyl)carbamothioyl]-3-[4-[4-[1-[4-(trifluoromethoxy)phenyl]-1H-1,2,4-triazol-3-yl]phenyl]butyl]urea] |  |  | 50 to 100 | 50 to 100 | 
6 | CC(C)c1ccccc1NC(=S)NC(=O)NCCCCc1ccc(-c2ncn(-c3ccc(OC(F)(F)F)cc3)n2)cc1 [PC146, 1-[(2-isopropylphenyl)carbamothioyl]-3-[4-[4-[1-[4-(trifluoromethoxy)phenyl]-1H-1,2,4-triazol-3-yl]phenyl]butyl]urea] |  |  | 50 to 100 | 50 to 100 | 
7 | Cc1ccc(C(C)C)c(NC(=S)NC(=O)NCCCCc2ccc(-c3ncn(-c4ccc(OC(F)(F)F)cc4)n3)cc2)c1 [PC150, 1-[(2-isopropyl-5-methyl-phenyl)carbamothioyl]-3-[4-[4-[1-[4-(trifluoromethoxy)phenyl]-1H-1,2,4-triazol-3-yl]phenyl]butyl]urea] |  |  | 50 to 100 | 50 to 100 | 
8 | Cc1cccc(C)c1NC(=S)NC(=O)NCCCCc1ccc(-c2ncn(-c3ccc(OC(F)(F)F)cc3)n2)cc1 [PC152, 1-[(2,6-dimethylphenyl)carbamothioyl]-3-[4-[4-[1-[4-(trifluoromethoxy)phenyl]-1H-1,2,4-triazol-3-yl]phenyl]butyl]urea] |  |  | 50 to 100 | 50 to 100 | 
9 | CCc1cccc(C)c1NC(=S)NC(=O)NCCCCc1ccc(-c2ncn(-c3ccc(OC(F)(F)F)cc3)n2)cc1 [PC153, 1-[(2-ethyl-6-methyl-phenyl)carbamothioyl]-3-[4-[4-[1-[4-(trifluoromethoxy)phenyl]-1H-1,2,4-triazol-3-yl]phenyl]butyl]urea] |  |  | 50 to 100 |  | B (More than 0-Less than 80)
10 | Cc1ccc(NC(=S)NC(=O)NCCCCc2ccc(-c3ncn(-c4ccc(OC(F)(F)F)cc4)n3)cc2)c(C(C)C)c1 [PC154, 1-[(2-isopropyl-4-methyl-phenyl)carbamothioyl]-3-[4-[4-[1-[4-(trifluoromethoxy)phenyl]-1H-1,2,4-triazol-3-yl]phenyl]butyl]urea] |  |  | 50 to 100 | 50 to 100 | 
11 | CC(C)c1cc(F)ccc1NC(=S)NC(=O)NCCCCc1ccc(-c2ncn(-c3ccc(OC(F)(F)F)cc3)n2)cc1 [PC155, 1-[(4-fluoro-2-isopropyl-phenyl)carbamothioyl]-3-[4-[4-[1-[4-(trifluoromethoxy)phenyl]-1H-1,2,4-triazol-3-yl]phenyl]butyl]urea] |  |  | 50 to 100 | 50 to 100 | 
12 | COc1ccc(C(C)C)c(NC(=S)NC(=O)NCCCCc2ccc(-c3ncn(-c4ccc(OC(F)(F)F)cc4)n3)cc2)c1 [PC156] |  |  | 50 to 100 | 50 to 100 | 
13 | Cc1ccc(C(C)C)c(NC(=S)NC(=O)NCCCCc2ccc(-c3ncn(-c4ccc(C(F)(F)F)cc4)n3)cc2)c1 [PC159, 1-[(2-isopropyl-5-methyl-phenyl)carbamothioyl]-3-[4-[4-[1-[4-(trifluoromethyl)phenyl]-1H-1,2,4-triazol-3-yl]phenyl]butyl]urea] |  |  | 50 to 100 | 50 to 100 | 
14 | Cc1ccc(C(C)C)c(NC(=S)NC(=O)NCCC#Cc2ccc(-c3ncn(-c4ccc(OC(F)(F)F)cc4)n3)cc2)c1 [PC160, 1-[(2-isopropyl-5-methyl-phenyl)carbamothioyl]-3-[4-[4-[1-[4-(trifluoromethoxy)phenyl]-1H-1,2,4-triazol-3-yl]phenyl]but-3-ynyl]urea] |  |  | 50 to 100 | 50 to 100 | 
15 | Cc1ccccc1NC(=S)NC(=O)NCCCCc1cccc(-c2ncn(-c3ccc(OC(F)(F)F)cc3)n2)c1 [PC170, 1-(o-tolylcarbamothioyl)-3-[4-[3-[1-[4-(trifluoromethoxy)phenyl]-1H-1,2,4-triazol-3-yl]phenyl]butyl]urea] |  |  | 50 to 100 | 0 to 50 | 
16 | CCc1ccccc1NC(=S)NC(=O)NCCCCc1cccc(-c2ncn(-c3ccc(OC(F)(F)F)cc3)n2)c1 [PC171, 1-[(2-ethylphenyl)carbamothioyl]-3-[4-[3-[1-[4-(trifluoromethoxy)phenyl]-1H-1,2,4-triazol-3-yl]phenyl]butyl]urea] |  |  | 50 to 100 | 0 to 50 | 
17 | CC(C)c1ccccc1NC(=S)NC(=O)NCCCCc1cccc(-c2ncn(-c3ccc(OC(F)(F)F)cc3)n2)c1 [PC172, 1-[(2-isopropylphenyl)carbamothioyl]-3-[4-[3-[1-[4-(trifluoromethoxy)phenyl]-1H-1,2,4-triazol-3-yl]phenyl]butyl]urea] |  |  | 50 to 100 | 50 to 100 | 
18 | Cc1ccc(C(C)C)c(NC(=S)NC(=O)NCCCCc2cccc(-c3ncn(-c4ccc(OC(F)(F)F)cc4)n3)c2)c1 [PC176, 1-[(2-isopropyl-5-methyl-phenyl)carbamothioyl]-3-[4-[3-[1-[4-(trifluoromethoxy)phenyl]-1H-1,2,4-triazol-3-yl]phenyl]butyl]urea] |  |  | 50 to 100 | 0 to 50 | 
19 | CCc1cccc(C)c1NC(=S)NC(=O)NCCCCc1cccc(-c2ncn(-c3ccc(OC(F)(F)F)cc3)n2)c1 [PC179, 1-[(2-ethyl-6-methyl-phenyl)carbamothioyl]-3-[4-[3-[1-[4-(trifluoromethoxy)phenyl]-1H-1,2,4-triazol-3-yl]phenyl]butyl]urea] |  |  | 50 to 100 | 0 to 50 | 
